Assay in all cases: relative viability (nuclei count vs DMSO), 5 days (fraction); higher = more cells survive
Compound in the test “PAC-1 + Decitabine”: C=CCc1cccc(/C=N/NC(=O)CN2CCN(Cc3ccccc3)CC2)c1O [PAC-1] + Nc1ncn([C@H]2C[C@H](O)[C@@H](CO)O2)c(=O)n1 [Decitabine] (partner 2 µM)
In a few lines:
(§1)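 Lung cancer cell lines were pin-tool dosed in 1536-well plates on the day after seeding, with either a lone drug or a fixed anchor-drug dose plus five library-drug doses (not always all listed) in √10 steps. Nuclei were counted on 4× images after 5 days. Relative viability is the ratio of treated-well to vehicle-well nuclei counts, with each value a median of duplicate plates.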

Compound in the test “BMX-IN-1 + Phenformin”: C=CC(=O)Nc1cc(-n2c(=O)ccc3cnc4ccc(-c5ccc(NS(C)(=O)=O)cc5)cc4c32)ccc1C [BMX-IN-1] + N=C(N)NC(=N)NCCc1ccccc1 [Phenformin] (partner 250 µM)
Summed up:
as §1

Compound in the test “PAC-1 + Bortezomib”: C=CCc1cccc(/C=N/NC(=O)CN2CCN(Cc3ccccc3)CC2)c1O [PAC-1] + CC(C)C[C@H](NC(=O)[C@H](Cc1ccccc1)NC(=O)c1cnccn1)B(O)O [Bortezomib] (partner 0.002 µM)
Summed up:
as §1

Compound in the test “BMX-IN-1 + Decitabine”: C=CC(=O)Nc1cc(-n2c(=O)ccc3cnc4ccc(-c5ccc(NS(C)(=O)=O)cc5)cc4c32)ccc1C [BMX-IN-1] + Nc1ncn([C@H]2C[C@H](O)[C@@H](CO)O2)c(=O)n1 [Decitabine] (partner 2 µM)
In a few lines: as §1

Compound in the test “BMX-IN-1 + Dasatinib”: C=CC(=O)Nc1cc(-n2c(=O)ccc3cnc4ccc(-c5ccc(NS(C)(=O)=O)cc5)cc4c32)ccc1C [BMX-IN-1] + Cc1nc(Nc2ncc(C(=O)Nc3c(C)cccc3Cl)s2)cc(N2CCN(CCO)CC2)n1 [Dasatinib] (partner 0.075 µM)
Summed up: as §1

HCC-15: the relative viability with PAC-1 + Decitabine (first compound 0.02 µM) worked out at 0.628; with PAC-1 + Decitabine (first compound 0.06325 µM), 0.685; in the test with PAC-1 + Decitabine (first compound 0.2 µM) it was 0.56; in the test with PAC-1 + Decitabine (first compound 2 µM), 0.599; with BMX-IN-1 + Phenformin (first compound 0.02 µM) it was 0.501; with BMX-IN-1 + Phenformin (first compound 0.2 µM) it was 0.591. Besides, the relative viability with BMX-IN-1 + Phenformin (first compound 0.6325 µM) was 0.531; with BMX-IN-1 + Phenformin (first compound 2 µM) it was 0.506; with PAC-1 + Bortezomib (first compound 0.02 µM) it was 1.03; with PAC-1 + Bortezomib (first compound 0.06325 µM) it was 1.11; with PAC-1 + Bortezomib (first compound 0.2 µM), 1.01; with PAC-1 + Bortezomib (first compound 2 µM), 1.04. For the same cell line, the relative viability in the test with BMX-IN-1 + Decitabine (first compound 0.02 µM) was found to be 0.721; with BMX-IN-1 + Decitabine (first compound 0.2 µM), 0.651; in the test with BMX-IN-1 + Decitabine (first compound 0.6325 µM), 0.652; in the test with BMX-IN-1 + Decitabine (first compound 2 µM), 0.713; in the test with BMX-IN-1 + Dasatinib (first compound 0.02 µM) it was 0.662; in the test with BMX-IN-1 + Dasatinib (first compound 0.2 µM), 0.64. The relative viability was 0.745 with BMX-IN-1 + Dasatinib (first compound 0.6325 µM) and 0.64 in the test with BMX-IN-1 + Dasatinib (first compound 2 µM).

Regarding HCC-44, the relative viability worked out at 1.03 in the test with PAC-1 + Decitabine (first compound 0.02 µM); 0.914 with PAC-1 + Decitabine (first compound 0.06325 µM); 0.855 in the test with PAC-1 + Decitabine (first compound 0.2 µM); 0.933 with PAC-1 + Decitabine (first compound 2 µM); 0.321 in the test with BMX-IN-1 + Phenformin (first compound 0.02 µM); 0.269 with BMX-IN-1 + Phenformin (first compound 0.2 µM). Moreover, the relative viability with BMX-IN-1 + Phenformin (first compound 0.6325 µM) worked out at 0.251; in the test with BMX-IN-1 + Phenformin (first compound 2 µM) it was 0.262; with PAC-1 + Bortezomib (first compound 0.02 µM), 0.894; with PAC-1 + Bortezomib (first compound 0.06325 µM), 0.885; with PAC-1 + Bortezomib (first compound 0.2 µM) it was 0.947; in the test with PAC-1 + Bortezomib (first compound 2 µM) it was 0.934. For the same cell line, the relative viability in the test with BMX-IN-1 + Decitabine (first compound 0.02 µM) worked out at 0.988; in the test with BMX-IN-1 + Decitabine (first compound 0.2 µM), 0.969; with BMX-IN-1 + Decitabine (first compound 0.6325 µM) it was 1.01; in the test with BMX-IN-1 + Decitabine (first compound 2 µM), 0.981.

As to HCC-78, the relative viability with PAC-1 + Decitabine (first compound 0.02 µM) was determined as 0.749; with PAC-1 + Decitabine (first compound 0.06325 µM), 0.639; with PAC-1 + Decitabine (first compound 0.2 µM), 0.529; with PAC-1 + Decitabine (first compound 2 µM) it was 0.649; with BMX-IN-1 + Phenformin (first compound 0.02 µM), 0.726; in the test with BMX-IN-1 + Phenformin (first compound 0.2 µM), 0.761. The relative viability is 0.834 with BMX-IN-1 + Phenformin (first compound 0.6325 µM); 0.697 with BMX-IN-1 + Phenformin (first compound 2 µM); 0.387 with PAC-1 + Bortezomib (first compound 0.02 µM); 0.496 with PAC-1 + Bortezomib (first compound 0.06325 µM); 0.434 with PAC-1 + Bortezomib (first compound 0.2 µM); 0.483 with PAC-1 + Bortezomib (first compound 2 µM). The relative viability with BMX-IN-1 + Decitabine (first compound 0.02 µM) was determined as 0.743; with BMX-IN-1 + Decitabine (first compound 0.2 µM) it was 0.766; with BMX-IN-1 + Decitabine (first compound 0.6325 µM), 0.789; in the test with BMX-IN-1 + Decitabine (first compound 2 µM) it was 0.802; with BMX-IN-1 + Dasatinib (first compound 0.02 µM), 0.379; with BMX-IN-1 + Dasatinib (first compound 0.2 µM), 0.421. For the same cell line, the relative viability stood at 0.37 in the test with BMX-IN-1 + Dasatinib (first compound 0.6325 µM) and 0.462 with BMX-IN-1 + Dasatinib (first compound 2 µM).

IA-LM: the relative viability in the test with PAC-1 + Bortezomib (first compound 0.02 µM) was 0.803; in the test with PAC-1 + Bortezomib (first compound 0.06325 µM), 0.756; with PAC-1 + Bortezomib (first compound 0.2 µM), 0.783; in the test with PAC-1 + Bortezomib (first compound 2 µM), 0.807.

With LK-2, the relative viability with PAC-1 + Decitabine (first compound 0.02 µM) is 0.328; with PAC-1 + Decitabine (first compound 0.06325 µM), 0.284; with PAC-1 + Decitabine (first compound 0.2 µM), 0.264; with PAC-1 + Decitabine (first compound 2 µM), 0.335; in the test with BMX-IN-1 + Phenformin (first compound 0.02 µM) it was 0.487; with BMX-IN-1 + Phenformin (first compound 0.2 µM), 0.505. For the same cell line, the relative viability in the test with BMX-IN-1 + Phenformin (first compound 0.6325 µM) worked out at 0.473; with BMX-IN-1 + Phenformin (first compound 2 µM), 0.548; with BMX-IN-1 + Decitabine (first compound 0.02 µM), 0.262; in the test with BMX-IN-1 + Decitabine (first compound 0.2 µM), 0.326; with BMX-IN-1 + Decitabine (first compound 0.6325 µM), 0.269; with BMX-IN-1 + Decitabine (first compound 2 µM) it was 0.335. For the same cell line, the relative viability turned out to be 0.338 with BMX-IN-1 + Dasatinib (first compound 0.02 µM), 0.325 with BMX-IN-1 + Dasatinib (first compound 0.2 µM), 0.304 in the test with BMX-IN-1 + Dasatinib (first compound 0.6325 µM) and 0.282 in the test with BMX-IN-1 + Dasatinib (first compound 2 µM).

On to NCI-H358, for which the relative viability in the test with PAC-1 + Decitabine (first compound 0.02 µM) is 0.229; with PAC-1 + Decitabine (first compound 0.06325 µM), 0.219; with PAC-1 + Decitabine (first compound 0.2 µM) it was 0.209; with PAC-1 + Decitabine (first compound 2 µM), 0.16; in the test with BMX-IN-1 + Phenformin (first compound 0.02 µM), 0.355; in the test with BMX-IN-1 + Phenformin (first compound 0.2 µM), 0.342. The relative viability with BMX-IN-1 + Phenformin (first compound 0.6325 µM) came to 0.384; with BMX-IN-1 + Phenformin (first compound 2 µM), 0.324; with BMX-IN-1 + Decitabine (first compound 0.02 µM) it was 0.181; with BMX-IN-1 + Decitabine (first compound 0.2 µM), 0.2; in the test with BMX-IN-1 + Decitabine (first compound 0.6325 µM), 0.239; with BMX-IN-1 + Decitabine (first compound 2 µM) it was 0.214. In addition, the relative viability came out at 0.166 in the test with BMX-IN-1 + Dasatinib (first compound 0.02 µM), 0.145 with BMX-IN-1 + Dasatinib (first compound 0.2 µM), 0.176 with BMX-IN-1 + Dasatinib (first compound 0.6325 µM) and 0.135 with BMX-IN-1 + Dasatinib (first compound 2 µM).

Take NCI-H522: the relative viability with PAC-1 + Decitabine (first compound 0.02 µM) was determined as 0.607; in the test with PAC-1 + Decitabine (first compound 0.06325 µM) it was 0.641; with PAC-1 + Decitabine (first compound 0.2 µM), 0.614; with PAC-1 + Decitabine (first compound 2 µM), 0.697; with BMX-IN-1 + Phenformin (first compound 0.02 µM), 0.77; with BMX-IN-1 + Phenformin (first compound 0.2 µM) it was 0.64. Besides, the relative viability with BMX-IN-1 + Phenformin (first compound 0.6325 µM) stood at 0.669; with BMX-IN-1 + Phenformin (first compound 2 µM) it was 0.635; with BMX-IN-1 + Decitabine (first compound 0.02 µM), 0.692; in the test with BMX-IN-1 + Decitabine (first compound 0.2 µM), 0.633; with BMX-IN-1 + Decitabine (first compound 0.6325 µM) it was 0.725; in the test with BMX-IN-1 + Decitabine (first compound 2 µM), 0.624. Besides, the relative viability with BMX-IN-1 + Dasatinib (first compound 0.02 µM) worked out at 0.894; with BMX-IN-1 + Dasatinib (first compound 0.2 µM), 1.02; in the test with BMX-IN-1 + Dasatinib (first compound 0.6325 µM) it was 0.89; with BMX-IN-1 + Dasatinib (first compound 2 µM), 0.821.

In the case of NCI-H1299, the relative viability with PAC-1 + Bortezomib (first compound 0.02 µM) stood at 1.02; in the test with PAC-1 + Bortezomib (first compound 0.06325 µM), 0.99; in the test with PAC-1 + Bortezomib (first compound 0.2 µM), 0.975; with PAC-1 + Bortezomib (first compound 2 µM), 0.993.

As for NCI-H1395, the relative viability with PAC-1 + Decitabine (first compound 0.02 µM) was 0.741; with PAC-1 + Decitabine (first compound 0.06325 µM), 0.685; with PAC-1 + Decitabine (first compound 0.2 µM), 0.632; with PAC-1 + Decitabine (first compound 2 µM), 0.712; with BMX-IN-1 + Phenformin (first compound 0.02 µM), 0.445; with BMX-IN-1 + Phenformin (first compound 0.2 µM), 0.456. Besides, the relative viability is 0.444 with BMX-IN-1 + Phenformin (first compound 0.6325 µM); 0.47 in the test with BMX-IN-1 + Phenformin (first compound 2 µM); 0.781 with BMX-IN-1 + Decitabine (first compound 0.02 µM); 0.695 with BMX-IN-1 + Decitabine (first compound 0.2 µM); 0.677 with BMX-IN-1 + Decitabine (first compound 0.6325 µM); 0.769 with BMX-IN-1 + Decitabine (first compound 2 µM). The relative viability in the test with BMX-IN-1 + Dasatinib (first compound 0.02 µM) came out at 0.408; in the test with BMX-IN-1 + Dasatinib (first compound 0.2 µM) it was 0.579; with BMX-IN-1 + Dasatinib (first compound 0.6325 µM), 0.462; with BMX-IN-1 + Dasatinib (first compound 2 µM), 0.391.
